Measurements taken from US20250136614A1, “2,7-SUBSTITUTED PYRROLO[2,1-F][1,2,4]TRIAZINE COMPOUND HAVING PROTEIN KINASE INHIBITORY ACTIVITY” (Magicbullettherapeutics Co., Ltd., priority 2021, published 2025).

How the values were obtained:
Type in all cases: cell-based
[1] = biological target: T1, Ba/F3 FLT3 (ITD/D835YF691L) (Homo sapiens, UniProt P36888, F691L/D835Y, cells depend on it, form not given); assay: Ba/F3 cell growth inhibition (CellTiter-Glo, 72 hours); conditions: read-out: Ba/F3 GI50s (μM) FLT3 (ITD/D835YF691L)
T1 sequence (P36888 1-993 F691L/D835Y): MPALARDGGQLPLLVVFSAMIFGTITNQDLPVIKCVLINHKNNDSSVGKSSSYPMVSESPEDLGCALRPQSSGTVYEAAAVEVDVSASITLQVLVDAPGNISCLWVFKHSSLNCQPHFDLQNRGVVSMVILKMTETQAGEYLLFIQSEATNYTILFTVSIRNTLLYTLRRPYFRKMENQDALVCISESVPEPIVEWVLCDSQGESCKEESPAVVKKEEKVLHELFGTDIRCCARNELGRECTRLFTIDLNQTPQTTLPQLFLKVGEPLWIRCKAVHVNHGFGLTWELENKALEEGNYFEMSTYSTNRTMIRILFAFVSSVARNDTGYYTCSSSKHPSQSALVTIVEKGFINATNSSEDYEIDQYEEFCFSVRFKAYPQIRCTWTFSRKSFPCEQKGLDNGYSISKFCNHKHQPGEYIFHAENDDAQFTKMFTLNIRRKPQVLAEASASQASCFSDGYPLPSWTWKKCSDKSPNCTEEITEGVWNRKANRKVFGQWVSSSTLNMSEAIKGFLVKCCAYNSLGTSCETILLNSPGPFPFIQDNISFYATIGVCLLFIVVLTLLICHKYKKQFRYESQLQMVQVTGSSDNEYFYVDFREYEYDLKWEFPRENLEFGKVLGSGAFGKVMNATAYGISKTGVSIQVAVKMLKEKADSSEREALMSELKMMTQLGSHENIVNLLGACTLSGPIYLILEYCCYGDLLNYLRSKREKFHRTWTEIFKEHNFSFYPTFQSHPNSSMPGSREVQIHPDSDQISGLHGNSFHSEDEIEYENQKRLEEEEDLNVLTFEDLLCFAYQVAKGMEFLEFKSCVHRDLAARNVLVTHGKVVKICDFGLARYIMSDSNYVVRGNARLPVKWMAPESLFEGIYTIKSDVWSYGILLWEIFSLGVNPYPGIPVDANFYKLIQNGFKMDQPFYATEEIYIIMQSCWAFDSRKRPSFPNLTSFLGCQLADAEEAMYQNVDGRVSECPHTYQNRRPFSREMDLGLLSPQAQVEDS

[2] = system: H1975; assay: Cancer cell growth inhibition (CellTiter-Glo, 72 hours); conditions: Homo sapiens, NCI-H1975, H1975 cells, read-out: GI50s (μM) H1975
Procedure: (§1) Seeding 3000 cells per well in a 96-well plate. After cell stabilization, treat the cells with compounds diluted in 0.5% DMSO at a ⅓ serial dilution and culture for 72 hours. Following treatment with CellTiter-Glo, luminescence is produced only in the presence of ATP, as luciferase degrades luciferin. Luminescence values were measured using Envision (PerkinElmer). Based on the measured luminescence values, the concentration of compounds causing cell death was calculated to determine the GI50 value.
(§2) The activity values were categorized into three levels • A: IC50<1 μM • B: 1 μM≤IC50<10 μM, • C: IC50≥10 μM

[3] = system: H358; assay: as above; conditions: Homo sapiens, NCI-H358, H358 cells, read-out: GI50s (μM) H358
Procedure: as §1, §2

[4] = system: colo205; assay: as above; conditions: Homo sapiens, COLO 205, colo205 cells, read-out: GI50s (μM) colo205
Procedure: as §1, §2

[5] = system: MDA-MB-231; assay: as above; conditions: Homo sapiens, MDA-MB-231 cells, read-out: GI50s (μM) MDA-MB-231
Procedure: as §1, §2

[6] = system: H23; assay: as above; conditions: Homo sapiens, NCI-H23, H23 cells, read-out: GI50s (μM) H23
Procedure: as §1, §2

[7] = system: HCT116; assay: as above; conditions: Homo sapiens, HCT-116, HCT116 cells, read-out: GI50s (μM) HCT116
Procedure: as §1, §2

Compound | GI50 [1] | IC50 [2] | IC50 [3] | IC50 [4] | IC50 [5] | IC50 [6] | IC50 [7]
COc1cc2ccc1Nc1ncc3ccc(n3n1)-c1ccc(cc1)OCCOCC(=O)NCCCO2 [Example 34, (Z)-42-methoxy-5,12,15-trioxa-3,9-diaza-2(7,2)-pyrrolo[2,1-f][1,2,4]triazina-1,4(1,4)-dibenzenacyclopentadecaphan-10-one] | 1 to 10 µM | ≥ 10 µM | ≥ 10 µM | ≥ 10 µM | 1 to 10 µM | ≥ 10 µM | ≥ 10 µM
Cc1ncsc1-c1ccc(CNC(=O)[C@@H]2C[C@@H](O)CN2C(=O)[C@@H](NC(=O)COCCN2CCN(c3ccc(Nc4ncc5ccc(-c6cccc(NS(C)(=O)=O)c6)n5n4)cc3)CC2)C(C)(C)C)cc1 [Example 83, (2S,4R)-1-((S)-3,3-dimethyl-2-(2-(2-(4-(4-((7-(3-(methanesulfonamido)phenyl)pyrrolo[2,1-f][1,2,4]triazin-2-yl)amino)phenyl)piperazin-1-yl)ethoxy)acetaamino)butanoyl)-4-hydroxy-N-(4-(4-methylthiazol-5-yl)benzyl)pyrrolidin-2-carboxamide] | ≥ 10 µM | 1 to 10 µM | 1 to 10 µM | ≥ 10 µM | ≥ 10 µM | 1 to 10 µM | 1 to 10 µM
CS(=O)(=O)Nc1cccc(-c2ccc3cnc(Nc4ccc(N5CCN(CCCCCCCOc6cccc7c6C(=O)N(C6CCC(=O)NC6=O)C7=O)CC5)cc4)nn23)c1 (stereo not shown) [Example 41] | < 1 µM | ≥ 10 µM | ≥ 10 µM | ≥ 10 µM | ≥ 10 µM | ≥ 10 µM | ≥ 10 µM
CS(=O)(=O)Nc1cccc(-c2ccc3cnc(Nc4ccc(N5CCN(CCCCCOc6cccc7c6C(=O)N(C6CCC(=O)NC6=O)C7=O)CC5)cc4)nn23)c1 (stereo not shown) [Example 39] | ≥ 10 µM | ≥ 10 µM | ≥ 10 µM | ≥ 10 µM | ≥ 10 µM | ≥ 10 µM | ≥ 10 µM
COc1cccc(NC(=O)N2CCCn3cc(cn3)Nc3ncc4ccc(n4n3)-c3ccc(cc3)OCC2)c1 [Example 7, (2^1Z,4^4E)-N-(3-methoxyphenyl)-4^1H-11-oxa-3,8-diaza-2(7,2)-pyrrolo[2,1-f][1,2,4]triazina-4(4,1)-pyrazola-1(1,4)-benzenecycloundecaphane-8-carboxamide] | 1 to 10 µM | 1 to 10 µM | 1 to 10 µM | ≥ 10 µM | ≥ 10 µM | 1 to 10 µM | 1 to 10 µM
O=C1COCCOc2ccc(cc2)-c2ccc3cnc(nn23)Nc2cnn(c2)CCCN1 [Example 35, (2^1Z,4^4E)-4^1H-11,14-dioxa-3,8-diaza-2(7,2)-pyrrolo[2,1-f1][1,2,4]triazina-4(4,1)-pyrazola-1(1,4)-benzenacyclotetradecaphan-9-one] | < 1 µM | 1 to 10 µM | 1 to 10 µM | 1 to 10 µM | ≥ 10 µM | 1 to 10 µM | 1 to 10 µM
O=C1CCCCOc2ccc(cc2)-c2ccc3cnc(nn23)Nc2cnn(c2)C2CCN(CCCN1)CC2 [Example 26, (2^1Z,4^4E)-4^1H-15-oxa-3,9-diaza-2(7,2)-pyrrolo[2,1-f1][1,2,4]triazina-5(4,1)-piperidina-4(4,1)-pyrazola-1(1,4)-benzenacyclopentadecaphan-10-one] | < 1 µM | < 1 µM | < 1 µM | < 1 µM | ≥ 10 µM | < 1 µM | < 1 µM
O=C1CCCCCCOc2ccc(cc2)-c2ccc3cnc(nn23)Nc2ccc(cc2)OCCCN1 [Example 29, (Z)-5,17-dioxa-3,9-diaza-2(7,2)-pyrrolo[2,1-f][1,2,4]triazina-1,4(1,4)-dibenzenacycloheptadecaphan-10-one] | 1 to 10 µM | 1 to 10 µM | 1 to 10 µM | 1 to 10 µM | ≥ 10 µM | 1 to 10 µM | 1 to 10 µM
O=C1CCCCOc2ccc(cc2)-c2ccc3cnc(nn23)Nc2cnn(c2)C2CCN1CC2 [Example 25, (2^1Z,4^4E)-4^1H-11-oxa-3-aza-2(7,2)-pyrrolo[2,1-f][1,2,4]triazina-5(4,1)-piperidina-4(4,1)-pyrazola-1(1,4)-benzenacycloundecaphan-6-one] | 1 to 10 µM | ≥ 10 µM | ≥ 10 µM | ≥ 10 µM | ≥ 10 µM | 1 to 10 µM | < 1 µM
CS(=O)(=O)N1CCCn2cc(cn2)Nc2ncc3ccc(n3n2)-c2ccc(cc2)OCC1 [Example 9, (2^1Z,4^4E)-8-(methylsulfonyl)-4^1H-11-oxa-3,8-diaza-2(7,2)-pyrrolo[2,1-f][1,2,4]triazina-4(4,1)-pyrazola-1(1,4)-benzenecycloundecaphane] | < 1 µM | 1 to 10 µM | < 1 µM | 1 to 10 µM | ≥ 10 µM | 1 to 10 µM | < 1 µM
CN1CCCn2cc(cn2)Nc2ncc3ccc(n3n2)-c2ccc(cc2)OCC1 [Example 2] | < 1 µM | 1 to 10 µM | < 1 µM | 1 to 10 µM | ≥ 10 µM | < 1 µM | < 1 µM
O=C1CCCCCCOc2ccc(cc2)-c2ccc3cnc(nn23)Nc2ccc(cc2)N2CCN(CCCN1)CC2 [Example 23, (Z)-17-oxa-3,9-diaza-2(7,2)-pyrrolo[2,1-f][1,2,4]triazina-5(1,4)-piperazina-1,4(1,4)-dibenzenacycloheptadecaphan-10-one] | 1 to 10 µM | 1 to 10 µM | 1 to 10 µM | 1 to 10 µM | ≥ 10 µM | < 1 µM | 1 to 10 µM
O=C1CCCCCCOc2ccc(cc2)-c2ccc3cnc(nn23)Nc2cnn(c2)CCCN1 [Example 37, (2^1Z,4^4E)-4^1H-16-oxa-3,8-diaza-2(7,2)-pyrrolo[2,1-f1][1,2,4]triazina-4(4,1)-pyrazola-1(1,4)-benzenacyclohexadecaphan-9-one] | 1 to 10 µM | ≥ 10 µM | ≥ 10 µM | ≥ 10 µM | ≥ 10 µM | 1 to 10 µM | 1 to 10 µM
O=C1CCCCCCOc2ccc(cc2)-c2ccc3cnc(nn23)Nc2cnn(c2)C2CCN(CCCN1)CC2 [Example 27, (2^1Z,4^4E)-4^1H-17-oxa-3,9-diaza-2(7,2)-pyrrolo[2,1-f1][1,2,4]triazina-5(4,1)-piperidina-4(4,1)-pyrazola-1(1,4)-benzenacycloheptadecaphan-10-one] | < 1 µM | ≥ 10 µM | 1 to 10 µM | ≥ 10 µM | 1 to 10 µM | 1 to 10 µM | ≥ 10 µM
O=C1CCCCOc2ccc(cc2)-c2ccc3cnc(nn23)Nc2ccc(cc2)OCCCN1 [Example 38, (Z)-5,15-dioxa-3,9-diaza-2(7,2)-pyrrolo[2,1-f][1,2,4]triazina-1,4(1,4)-dibenzenacyclopentadecaphan-10-one] | 1 to 10 µM | ≥ 10 µM | 1 to 10 µM | ≥ 10 µM | ≥ 10 µM | ≥ 10 µM | 1 to 10 µM
O=C1COCCOc2ccc(cc2)-c2ccc3cnc(nn23)Nc2ccc(cc2)OCCCN1 [Example 28, (Z)-5,12,15-trioxa-3,9-diaza-2(7,2)-pyrrolo[2,1-f][1,2,4]triazina-1,4(1,4)-dibenzenacyclopentadecaphan-10-one] | 1 to 10 µM | 1 to 10 µM | 1 to 10 µM | 1 to 10 µM | ≥ 10 µM | 1 to 10 µM | 1 to 10 µM
